The values below come from patent US11542304B2, “Multimeric bicyclic peptide ligands” (BicycleTx Limited, priority 2018, dated 2023).

For this data set, the target named is CD137 (Homo sapiens, UniProt Q07011). Nature of the data set: CD137 Promega reporter cell activity assay (NF-κB luciferase in Jurkat cells). As to conditions: for Average Fold EC50 Improvement relative to CD137L: Average EC50 for CD137L = 14.2 nM; for Average Relative Fold Induction relative to CD137L: Average fold induction for CD137L = 4.0.
CD137, sequence (Q07011 24-255): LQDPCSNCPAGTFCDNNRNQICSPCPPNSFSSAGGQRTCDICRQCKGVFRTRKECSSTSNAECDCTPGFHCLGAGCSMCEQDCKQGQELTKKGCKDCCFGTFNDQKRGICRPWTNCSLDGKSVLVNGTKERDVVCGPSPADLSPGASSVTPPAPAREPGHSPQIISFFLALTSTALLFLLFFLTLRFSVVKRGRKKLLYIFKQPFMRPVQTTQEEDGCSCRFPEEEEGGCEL

Experimental: CD137 binding multimers were evaluated for CD137 using a Reporter cell activity assay that uses NF-κB luciferase luminescence as a read-out of CD137 activation in Jurkat cells. […] Samples were diluted at concentration expected to give the maximum fold induction and then titrated down in 1/3 dilution series or 1/10 dilution series in a sterile 96 well-plate. […] 50 μl cells were added per well to white cell culture plates.
Cells were co-incubated together with agonists for 6 h at 37° C., 5% CO2. After 6 h Bio-Glo™ was thawed and the assay developed at room-temperature. 75 ul Bio-Glo™ was added per well and incubated for 5-10 min. Luciferase signal was read on a Pherastar plate-reader using MARS program. Data was analysed by transforming the data to x=log (X), then plotting log (agonist) vs. response variable slope (4 parameters) to calculate EC50 values.

On to `CCCC[C@@H]1NC(=O)[C@H](Cc2ccc(O)cc2)NC(=O)[C@@H]2CCCN2C(=O)[C@H](CC(=O)O)NC(=O)[C@H](C)NC(=O)[C@H](Cc2ccccc2)NC(=O)[C@@H]2CSCCC(=O)N3CN(CN(C3)C(=O)CCSC[C@@H](C(=O)N[C@@H](C)C(N)=O)NC1=O)C(=O)CCSC[C@H](NC(=O)[C@H](C)NC(C)=O)C(=O)N[C@@H]([C@@H](C)CC)C(=O)N[C@@H](CCC(=O)O)C(=O)N[C@@H](CCC(=O)O)C(=O)NCC(=O)N[C@@H](CCCCNC(=O)CCc1cn(CCOCCOCCOCCOCCOCCOCCOCCOCCOCCOCCNC(=O)CCOCC(COCCC(=O)NCCOCCOCCOCCOCCOCCOCCOCCOCCOCCOCCn3cc(CCC(=O)NCCCC[C@@H]4NC(=O)CNC(=O)[C@H](CCC(=O)O)NC(=O)[C@H](CCC(=O)O)NC(=O)[C@H]([C@@H](C)CC)NC(=O)[C@@H](NC(=O)[C@H](C)NC(C)=O)CSCCC(=O)N5CN6CN(C5)C(=O)CCSC[C@H](NC(=O)[C@H](Cc5ccc(O)cc5)NC4=O)C(=O)N[C@@H](Cc4ccccc4)C(=O)N[C@@H](C)C(=O)N[C@@H](CC(=O)O)C(=O)N4CCC[C@H]4C(=O)N[C@@H](Cc4ccc(O)cc4)C(=O)N[C@@H](CCCC)C(=O)N[C@H](C(=O)N[C@@H](C)C(N)=O)CSCCC6=O)nn3)(COCCC(=O)NCCOCCOCCOCCOCCOCCOCCOCCOCCOCCOCCn3cc(CCC(=O)NCCCC[C@@H]4NC(=O)CNC(=O)[C@H](CCC(=O)O)NC(=O)[C@H](CCC(=O)O)NC(=O)[C@H]([C@@H](C)CC)NC(=O)[C@@H](NC(=O)[C@H](C)NC(C)=O)CSCCC(=O)N5CN6CN(C5)C(=O)CCSC[C@H](NC(=O)[C@H](Cc5ccc(O)cc5)NC4=O)C(=O)N[C@@H](Cc4ccccc4)C(=O)N[C@@H](C)C(=O)N[C@@H](CC(=O)O)C(=O)N4CCC[C@H]4C(=O)N[C@@H](Cc4ccc(O)cc4)C(=O)N[C@@H](CCCC)C(=O)N[C@H](C(=O)N[C@@H](C)C(N)=O)CSCCC6=O)nn3)COCCC(=O)NCCOCCOCCOCCOCCOCCOCCOCCOCCOCCOCCn3cc(CCC(=O)NCCCC[C@@H]4NC(=O)CNC(=O)[C@H](CCC(=O)O)NC(=O)[C@H](CCC(=O)O)NC(=O)[C@H]([C@@H](C)CC)NC(=O)[C@@H](NC(=O)[C@H](C)NC(C)=O)CSCCC(=O)N5CN6CN(C5)C(=O)CCSC[C@H](NC(=O)[C@H](Cc5ccc(O)cc5)NC4=O)C(=O)N[C@@H](Cc4ccccc4)C(=O)N[C@@H](C)C(=O)N[C@@H](CC(=O)O)C(=O)N4CCC[C@H]4C(=O)N[C@@H](Cc4ccc(O)cc4)C(=O)N[C@@H](CCCC)C(=O)N[C@H](C(=O)N[C@@H](C)C(N)=O)CSCCC6=O)nn3)nn1)C(=O)N[C@@H](Cc1ccc(O)cc1)C(=O)N2` [BCY7845], for which the “Average Fold EC50 Improvement relative to CD137L” value amounted to 17.78 and the “Average Relative Fold Induction relative to CD137L” value came out at 1.54. Besides, the “CD137 agonism / activation in reporter cells (in words)” value (FIGS. 1 to 3 and 15) was “high levels of CD137 agonism”. In addition, the Average fold induction result (reference substance of Table 4A / 4B) is listed as “**Average fold induction for BCY7845 = 6.3”.
`CCCC[C@@H]1NC(=O)[C@H](Cc2ccc(O)cc2)NC(=O)[C@@H]2CCCN2C(=O)[C@H](CC(=O)O)NC(=O)[C@H](C)NC(=O)[C@H](Cc2ccccc2)NC(=O)[C@@H]2CSCCC(=O)N3CN(CN(C3)C(=O)CCSC[C@@H](C(=O)N[C@@H](C)C(N)=O)NC1=O)C(=O)CCSC[C@H](NC(=O)[C@H](C)NC(C)=O)C(=O)N[C@@H]([C@@H](C)CC)C(=O)N[C@@H](CCC(=O)O)C(=O)N[C@@H](CCC(=O)O)C(=O)N[C@H](CCCCNC(=O)OCC1C3CCc4nnn(CCOCCOCCOCCOCCOCCOCCOCCOCCOCCOCCNC(=O)CCOCCN(CCOCCC(=O)NCCOCCOCCOCCOCCOCCOCCOCCOCCOCCOCCn5nnc6c5CCC5C(CC6)C5COC(=O)NCCCC[C@H]5NC(=O)[C@H](CCC(=O)O)NC(=O)[C@H](CCC(=O)O)NC(=O)[C@H]([C@@H](C)CC)NC(=O)[C@@H](NC(=O)[C@H](C)NC(C)=O)CSCCC(=O)N6CN7CN(C6)C(=O)CCSC[C@H](NC(=O)[C@H](Cc6ccc(O)cc6)NC(=O)[C@H](CCC(N)=O)NC5=O)C(=O)N[C@@H](Cc5ccccc5)C(=O)N[C@@H](C)C(=O)N[C@@H](CC(=O)O)C(=O)N5CCC[C@H]5C(=O)N[C@@H](Cc5ccc(O)cc5)C(=O)N[C@@H](CCCC)C(=O)N[C@H](C(=O)N[C@@H](C)C(N)=O)CSCCC7=O)CCOCCC(=O)NCCOCCOCCOCCOCCOCCOCCOCCOCCOCCOCCn5nnc6c5CCC5C(CC6)C5COC(=O)NCCCC[C@H]5NC(=O)[C@H](CCC(=O)O)NC(=O)[C@H](CCC(=O)O)NC(=O)[C@H]([C@@H](C)CC)NC(=O)[C@@H](NC(=O)[C@H](C)NC(C)=O)CSCCC(=O)N6CN7CN(C6)C(=O)CCSC[C@H](NC(=O)[C@H](Cc6ccc(O)cc6)NC(=O)[C@H](CCC(N)=O)NC5=O)C(=O)N[C@@H](Cc5ccccc5)C(=O)N[C@@H](C)C(=O)N[C@@H](CC(=O)O)C(=O)N5CCC[C@H]5C(=O)N[C@@H](Cc5ccc(O)cc5)C(=O)N[C@@H](CCCC)C(=O)N[C@H](C(=O)N[C@@H](C)C(N)=O)CSCCC7=O)c4CCC31)C(=O)N[C@@H](CCC(N)=O)C(=O)N[C@@H](Cc1ccc(O)cc1)C(=O)N2` (stereo partly shown) [BCY8102]: the “Average Fold EC50 Improvement relative to CD137L” value was found to be 41.27 and the “Average Relative Fold Induction relative to CD137L” value turned out to be 0.91.
In the same order, the values of `CCCC[C@@H]1NC(=O)[C@H](Cc2ccc(O)cc2)NC(=O)[C@@H]2CCCN2C(=O)[C@H](CC(=O)O)NC(=O)[C@H](C)NC(=O)[C@H](Cc2ccccc2)NC(=O)[C@@H]2CSCCC(=O)N3CN(CN(C3)C(=O)CCSC[C@@H](C(=O)N[C@@H](C)C(N)=O)NC1=O)C(=O)CCSC[C@H](NC(=O)[C@H](C)NC(C)=O)C(=O)N[C@@H]([C@@H](C)CC)C(=O)N[C@@H](CCC(=O)O)C(=O)N[C@@H](CCC(=O)O)C(=O)N[C@H](CCCCNC(=O)OCC1C3CCc4nnn(CCOCCOCCOCCOCCOCCOCCOCCOCCOCCOCCOCCOCCOCCOCCOCCOCCOCCOCCOCCOCCOCCOCCOCCNC(=O)CCOCCN(CCOCCC(=O)NCCOCCOCCOCCOCCOCCOCCOCCOCCOCCOCCOCCOCCOCCOCCOCCOCCOCCOCCOCCOCCOCCOCCOCCn5nnc6c5CCC5C(CC6)C5COC(=O)NCCCC[C@H]5NC(=O)[C@H](CCC(=O)O)NC(=O)[C@H](CCC(=O)O)NC(=O)[C@H]([C@@H](C)CC)NC(=O)[C@@H](NC(=O)[C@H](C)NC(C)=O)CSCCC(=O)N6CN7CN(C6)C(=O)CCSC[C@H](NC(=O)[C@H](Cc6ccc(O)cc6)NC(=O)[C@H](CCC(N)=O)NC5=O)C(=O)N[C@@H](Cc5ccccc5)C(=O)N[C@@H](C)C(=O)N[C@@H](CC(=O)O)C(=O)N5CCC[C@H]5C(=O)N[C@@H](Cc5ccc(O)cc5)C(=O)N[C@@H](CCCC)C(=O)N[C@H](C(=O)N[C@@H](C)C(N)=O)CSCCC7=O)CCOCCC(=O)NCCOCCOCCOCCOCCOCCOCCOCCOCCOCCOCCOCCOCCOCCOCCOCCOCCOCCOCCOCCOCCOCCOCCOCCn5nnc6c5CCC5C(CC6)C5COC(=O)NCCCC[C@H]5NC(=O)[C@H](CCC(=O)O)NC(=O)[C@H](CCC(=O)O)NC(=O)[C@H]([C@@H](C)CC)NC(=O)[C@@H](NC(=O)[C@H](C)NC(C)=O)CSCCC(=O)N6CN7CN(C6)C(=O)CCSC[C@H](NC(=O)[C@H](Cc6ccc(O)cc6)NC(=O)[C@H](CCC(N)=O)NC5=O)C(=O)N[C@@H](Cc5ccccc5)C(=O)N[C@@H](C)C(=O)N[C@@H](CC(=O)O)C(=O)N5CCC[C@H]5C(=O)N[C@@H](Cc5ccc(O)cc5)C(=O)N[C@@H](CCCC)C(=O)N[C@H](C(=O)N[C@@H](C)C(N)=O)CSCCC7=O)c4CCC31)C(=O)N[C@@H](CCC(N)=O)C(=O)N[C@@H](Cc1ccc(O)cc1)C(=O)N2` (stereo partly shown) [BCY8103] are 188.34 and 0.91.
On the same counts, the results for `CCCC[C@@H]1NC(=O)[C@H](Cc2ccc(O)cc2)NC(=O)[C@@H]2CCCN2C(=O)[C@H](CC(=O)O)NC(=O)[C@H](C)NC(=O)[C@H](Cc2ccccc2)NC(=O)[C@@H]2CSCCC(=O)N3CN(CN(C3)C(=O)CCSC[C@@H](C(=O)N[C@@H](C)C(N)=O)NC1=O)C(=O)CCSC[C@H](NC(=O)[C@H](C)NC(C)=O)C(=O)N[C@@H]([C@@H](C)CC)C(=O)N[C@@H](CCC(=O)O)C(=O)N[C@@H](CCC(=O)O)C(=O)N[C@H](CCCCNC(=O)OCC1C3CCc4nnn(CCOCCOCCOCCOCCOCCOCCOCCOCCOCCOCCNC(=O)CCOCC(COCCC(=O)NCCOCCOCCOCCOCCOCCOCCOCCOCCOCCOCCn5nnc6c5CCC5C(CC6)C5COC(=O)NCCCC[C@H]5NC(=O)[C@H](CCC(=O)O)NC(=O)[C@H](CCC(=O)O)NC(=O)[C@H]([C@@H](C)CC)NC(=O)[C@@H](NC(=O)[C@H](C)NC(C)=O)CSCCC(=O)N6CN7CN(C6)C(=O)CCSC[C@H](NC(=O)[C@H](Cc6ccc(O)cc6)NC(=O)[C@H](CCC(N)=O)NC5=O)C(=O)N[C@@H](Cc5ccccc5)C(=O)N[C@@H](C)C(=O)N[C@@H](CC(=O)O)C(=O)N5CCC[C@H]5C(=O)N[C@@H](Cc5ccc(O)cc5)C(=O)N[C@@H](CCCC)C(=O)N[C@H](C(=O)N[C@@H](C)C(N)=O)CSCCC7=O)(COCCC(=O)NCCOCCOCCOCCOCCOCCOCCOCCOCCOCCOCCn5nnc6c5CCC5C(CC6)C5COC(=O)NCCCC[C@H]5NC(=O)[C@H](CCC(=O)O)NC(=O)[C@H](CCC(=O)O)NC(=O)[C@H]([C@@H](C)CC)NC(=O)[C@@H](NC(=O)[C@H](C)NC(C)=O)CSCCC(=O)N6CN7CN(C6)C(=O)CCSC[C@H](NC(=O)[C@H](Cc6ccc(O)cc6)NC(=O)[C@H](CCC(N)=O)NC5=O)C(=O)N[C@@H](Cc5ccccc5)C(=O)N[C@@H](C)C(=O)N[C@@H](CC(=O)O)C(=O)N5CCC[C@H]5C(=O)N[C@@H](Cc5ccc(O)cc5)C(=O)N[C@@H](CCCC)C(=O)N[C@H](C(=O)N[C@@H](C)C(N)=O)CSCCC7=O)COCCC(=O)NCCOCCOCCOCCOCCOCCOCCOCCOCCOCCOCCn5nnc6c5CCC5C(CC6)C5COC(=O)NCCCC[C@H]5NC(=O)[C@H](CCC(=O)O)NC(=O)[C@H](CCC(=O)O)NC(=O)[C@H]([C@@H](C)CC)NC(=O)[C@@H](NC(=O)[C@H](C)NC(C)=O)CSCCC(=O)N6CN7CN(C6)C(=O)CCSC[C@H](NC(=O)[C@H](Cc6ccc(O)cc6)NC(=O)[C@H](CCC(N)=O)NC5=O)C(=O)N[C@@H](Cc5ccccc5)C(=O)N[C@@H](C)C(=O)N[C@@H](CC(=O)O)C(=O)N5CCC[C@H]5C(=O)N[C@@H](Cc5ccc(O)cc5)C(=O)N[C@@H](CCCC)C(=O)N[C@H](C(=O)N[C@@H](C)C(N)=O)CSCCC7=O)c4CCC31)C(=O)N[C@@H](CCC(N)=O)C(=O)N[C@@H](Cc1ccc(O)cc1)C(=O)N2` (stereo partly shown) [BCY8104] are 103.27 and 1.65.
